Source: patent publication US20250066864A1, “METHODS FOR IDENTIFYING ADAR1 INHIBITORS, AND COMPOSITIONS AND METHODS OF USE IN TREATING CANCER” (The Wistar Institute of Anatomy and Biology, priority 2021, published 2025)
pIC50: −log10 of the molar value. Entries after “also recorded” stand apart in the source; their conditions may differ. Where two headings read alike, the source gives them in different places.

Experiments:
[1] = test system: IMR90 normal fibroblast cells; experiment: Apo Tox-Glo viability assay, IMR90 normal fibroblast cells; type: cell-based; conditions: 5 μM, 3 days
Experimental: (§1) HeLa, U2OS, and MRI90 cells were cultured in the presence of ADAR1 inhibitors, 5 μM or 20 μM, for 3 days. Their viability was examined using the Apo Tox-Glo assay system (Promega), which measures plasma membrane penetration of glycyl-phenyl-alanyl-aminofluorocoumarin peptide. Control, 0.3% DMSO. […] Data are mean±S.D. (n=3, biological replicates).
(§2) FIGS. 29A-29D Characterization of Compound #13 effects in cancer cells. […] Viability was examined using the Apo Tox-Glo assay system (Promega). Control, 0.3% DMSO. (FIG. 29B) Western blotting analysis of HeLa cells treated with Compound #13 (10 μM). […] (FIG. 29D) Activation of the IFN signaling pathway. HSC-4 squamous carcinoma cells were treated with Compound #13 at 10 μM (12 hrs). RNA samples were analyzed by qRT-PCR to monitor expression levels of ISGs.

ADAR1p110 = molecular target: T1, ADAR1p110 (Homo sapiens, UniProt P55265); experiment: in vitro editing assay with recombinant ADAR1p110 and dsRNA or DNA:RNA substrates; type: biochemical; conditions: for inhibitory potency of ADAR1 p110 editing activity (SAR analogs): data not shown
T1 construct: HAT (N); FLAG (alternative preparation, not on the same molecule as HAT) (N); made in house; host or cells: Sf9 insect cells, baculovirus
T1 sequence (P55265 1-931 isoform P55265-5): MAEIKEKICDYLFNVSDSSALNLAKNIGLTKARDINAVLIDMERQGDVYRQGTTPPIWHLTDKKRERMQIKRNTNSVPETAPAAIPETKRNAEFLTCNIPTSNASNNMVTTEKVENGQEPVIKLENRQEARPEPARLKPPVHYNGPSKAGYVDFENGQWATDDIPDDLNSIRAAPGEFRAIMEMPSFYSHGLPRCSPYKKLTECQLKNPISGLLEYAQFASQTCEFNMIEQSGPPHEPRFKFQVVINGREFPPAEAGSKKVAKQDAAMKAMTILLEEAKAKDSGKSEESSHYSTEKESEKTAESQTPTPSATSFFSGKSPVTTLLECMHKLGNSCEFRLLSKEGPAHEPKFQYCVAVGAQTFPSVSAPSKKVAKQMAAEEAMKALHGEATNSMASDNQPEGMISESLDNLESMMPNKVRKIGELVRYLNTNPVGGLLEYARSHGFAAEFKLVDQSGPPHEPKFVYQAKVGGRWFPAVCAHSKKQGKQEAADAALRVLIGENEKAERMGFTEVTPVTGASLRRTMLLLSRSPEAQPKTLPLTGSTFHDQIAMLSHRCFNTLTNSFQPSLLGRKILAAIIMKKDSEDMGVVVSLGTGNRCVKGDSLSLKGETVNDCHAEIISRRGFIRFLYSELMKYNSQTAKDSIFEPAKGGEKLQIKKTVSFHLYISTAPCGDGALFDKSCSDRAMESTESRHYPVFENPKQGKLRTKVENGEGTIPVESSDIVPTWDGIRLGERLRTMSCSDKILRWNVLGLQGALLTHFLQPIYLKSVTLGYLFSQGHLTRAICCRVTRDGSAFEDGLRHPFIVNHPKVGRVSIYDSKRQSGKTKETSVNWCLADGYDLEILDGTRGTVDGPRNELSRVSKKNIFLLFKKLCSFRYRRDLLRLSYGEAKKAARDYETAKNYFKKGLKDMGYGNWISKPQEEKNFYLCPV
Experimental: FIG. 26A-FIG. 26B show determination of IC50 by in vitro editing assay. In vitro editing assay using purified ADAR1p110 protein and two different substrates, matched (left) and mismatched (right) dsRNAs, was conducted in the presence of varying concentrations of compound #1 (FIG. 26A) or #13 (FIG. 26B) in order to estimate IC50 values for these compounds. In vitro editing was carried out using HAT-ADAR1p110 or HAT-ADAR2 recombinant protein (10 nM) and two different dsRNA substrates carrying a part of the CDK13 gene sequence (5 nM) at 37° C. for 2 hrs as described previously (12). Compounds were dissolved in 100% DMSO. The in vitro assay contained DMSO at final concentration of 16%.
The in vitro editing reaction mixture, containing 5 nM of telomere RNA:RNA duplex substrates and 75 nM of HAT-ADAR1p110-WT, FLAG-ADAR1p110-WT, or HA-ADAR1p110-EAA protein, was incubated at 37° C. for 2 h in in vitro editing buffer I (20 mM HEPES-KOH pH 7.5, 100 mM NaCl, 0.01% NP-40, 5% glycerol, 1 mM DTT). For editing of RNA:DNA hybrid substrates, in vitro editing buffer II (20 mM HEPES-KOH pH 7.5, 20 mM NaCl, 0.01% NP-40, 5% glycerol, 1 mM DTT) was used. Edited RNA or DNA strands were purified using Dynabeads MyOne Streptavidin C1 (Thermo Fisher Scientific). To remove opposite RNA or DNA strands, rNase H (NEB) or TURBO dNase (Thermo Fisher Scientific) was used, respectively. For sequencing of edited substrates, reverse transcription-PCR was carried out for RNA strands, while PCR was carried out for DNA strands. RT reactions were carried out using SuperScript III Reverse Transcriptase (Thermo Fisher Scientific), and PCR reactions were performed using Platinum Taq DNA polymerase (Thermo Fisher Scientific). PCR products were sequenced using a specific sequencing primer, and the ratio of A and G peaks in the chromatograms were analyzed by CodonCode Aligner (CodonCode Corporation).
The 54 compounds identified in the high-throughput screen were further tested in the in vitro editing assay described in Examples 1 and 2. The in vitro editing reaction mixture, containing 5 nM of telomere RNA:RNA duplex substrates and 75 nM of HAT-ADAR1p110-WT, FLAG-ADAR1p110-WT, or HA-ADAR1p110-EAA protein, was incubated at 37° C. for 2 h in in vitro editing buffer I (20 mM HEPES-KOH pH 7.5, 100 mM NaCl, 0.01% NP-40, 5% glycerol, 1 mM DTT) with 10 microM test compound. For editing of RNA:DNA hybrid substrates, in vitro editing buffer II (20 mM HEPES-KOH pH 7.5, 20 mM NaCl, 0.01% NP-40, 5% glycerol, 1 mM DTT) was used. Edited RNA or DNA strands were purified using Dynabeads MyOne Streptavidin C1 (Thermo Fisher Scientific). To remove opposite RNA or DNA strands, Rnase H (NEB) or TuRBO Dnase (Thermo Fisher Scientific) was used, respectively. For sequencing of edited substrates, reverse transcription-PCR was carried out for RNA strands, while PCR was carried out for DNA strands. RT reactions were carried out using SuperScript III Reverse Transcriptase (Thermo Fisher Scientific), and PCR reactions were performed using Platinum Taq DNA polymerase (Thermo Fisher Scientific). PCR products were sequenced using a specific sequencing primer, and the ratio of A and G peaks in the chromatograms were analyzed by CodonCode Aligner (CodonCode Corporation).

HeLa cells = experiment: Apo Tox-Glo viability assay, HeLa cells; type: cell-based, human; conditions: 5 μM, 3 days
Experimental: as §1, §2

U2OS cells = experiment: Apo Tox-Glo viability assay, U2OS cells; type: cell-based, human; conditions: 5 μM, 3 days
Experimental: as §1, §2

[2] = matched dsRNA substrate, read-out: IC50 estimated by in vitro editing assay, RNA:RNA
[3] = mismatched dsRNA substrate, read-out: IC50 estimated by in vitro editing assay, RNA:mmRNA
[4] = DNA:RNA mismatched hybrid substrate, read-out: IC50 estimated by in vitro editing assay, DNA:mmRNA

SMILES | pIC50 (ADAR1p110; [2]) | pIC50 (ADAR1p110; [3]) | pIC50 (ADAR1p110; [4]) | viability of MRI90 (normal fibroblast) cells [1] | viability of HeLa (non-ALT) cells (HeLa cells) | also measured
NC(=NOC(=O)c1ccc([N+](=O)[O-])o1)c1ccc(OCc2ccc(Cl)cc2)c(Cl)c1 [Compound #1, [[amino-[3-chloro-4-[(4-chlorophenyl)methoxy]phenyl]methylidene]amino]5-nitrofuran-2-carboxylate] | 4.57 | 4.48 | – | very little effects | significantly decreased viability; also recorded: significantly reduced viability | –
N#Cc1ccccc1NC(=O)c1sc2ccccc2c1Cl [Compound #13-Analog 2] | – | – | – | – | – | inhibitory potency of ADAR1 p110 editing activity (SAR analogs) (ADAR1p110): weaker but retained A-to-I editing inhibitory activity
Cc1cc(C)n(-c2ccc(N3CCSCC3)nn2)n1 [compound 37, 4-[6-(3,5-dimethylpyrazol-1-yl)pyridazin-3-yl]thiomorpholine] | – | 4.34 | 5.00 to 5.52 | – | – | pIC50 (ADAR1p110; matched dsRNA substrate, adenosine position 2, read-out: IC50 estimated by in vitro editing assay, RNA:RNA, Position 2): 4.16; pIC50 (ADAR1p110; matched dsRNA substrate, adenosine positions 3 & 6, read-out: IC50 estimated by in vitro editing assay, RNA:RNA, Position 3 & 6): 5.52
O=C(Nc1ccccc1)c1sc2ccccc2c1Cl [Compound #13-Analog 1] | – | – | – | – | – | inhibitory potency of ADAR1 p110 editing activity (SAR analogs) (ADAR1p110): complete loss of inhibitory potency; also recorded: inactive compound
CSc1nc(SC)c(C#N)c(-c2ccco2)n1 [compound 52, 4-(furan-2-yl)-2,6-bis(methylsulfanyl)pyrimidine-5-carbonitrile] | – | – | 5.52 to 5.82 | – | – | inhibition of editing of A:U matched dsRNA (ADAR1p110; matched dsRNA substrate, FIG. 25C, 10 microM test compound): not A:U matched dsRNA; inhibition of editing of A-C mismatched dsRNA (ADAR1p110; mismatched dsRNA substrate, FIG. 25C, 10 microM test compound): inhibited A-C mismatched dsRNA; inhibition of editing of A-C mismatched dsRNA (ADAR1p110; mismatched dsRNA substrate, FIG. 25C, 10 microM test compound, listed as #52): more specific inhibitory effects on adenosine at A-C mismatched base pairs
N#Cc1c(-c2ccccc2)cc(SCc2ccc(Cl)cc2)n2c1nc1ccccc12 [compound 23, 1-[(4-chlorophenyl)methylsulfanyl]-3-phenylpyrido[1,2-a]benzimidazole-4-carbonitrile] | 4.17 | – | – | – | – | pIC50 (ADAR1p110; mismatched dsRNA substrate, adenosine position 6, read-out: IC50 estimated by in vitro editing assay, RNA:mmRNA, Position 6): 4.18

The next lines start with results.

pIC50 (ADAR1p110; [2]) | pIC50 (ADAR1p110; [3]) | pIC50 (ADAR1p110; [4]) | SMILES | viability of MRI90 (normal fibroblast) cells [1] | viability of HeLa (non-ALT) cells (HeLa cells) | also measured
– | – | 4.12 to 4.52 | Cc1cc(C)n2nc(-c3ccccc3)cc2n1 [compound 6, 5,7-dimethyl-2-phenylpyrazolo[1,5-a]pyrimidine] | very little effects | significantly decreased viability; also recorded: significantly reduced viability | viability of U2OS (ALT) cells (U2OS cells): very little effects
– | – | 4.77 to 5.30 | CSc1[nH]nc(-c2ccc(Cl)cc2)c1C#N [compound 27, 5-(4-chlorophenyl)-3-methylsulfanyl-1H-pyrazole-4-carbonitrile] | very little effects | significantly decreased viability; also recorded: significantly reduced viability | viability of U2OS (ALT) cells (U2OS cells): very little effects
4.24 | 4.57 | – | COc1cc(C2=NNC(=O)CC2)cc(OC)c1OC [compound 40, 3-(3,4,5-trimethoxyphenyl)-4,5-dihydro-1H-pyridazin-6-one] | – | – | –
